The values below come from publication PMC3651692 (Bioorganic & medicinal chemistry letters, 2013).

δ-opioid receptor (DOR), sequence (P41143 whole entry): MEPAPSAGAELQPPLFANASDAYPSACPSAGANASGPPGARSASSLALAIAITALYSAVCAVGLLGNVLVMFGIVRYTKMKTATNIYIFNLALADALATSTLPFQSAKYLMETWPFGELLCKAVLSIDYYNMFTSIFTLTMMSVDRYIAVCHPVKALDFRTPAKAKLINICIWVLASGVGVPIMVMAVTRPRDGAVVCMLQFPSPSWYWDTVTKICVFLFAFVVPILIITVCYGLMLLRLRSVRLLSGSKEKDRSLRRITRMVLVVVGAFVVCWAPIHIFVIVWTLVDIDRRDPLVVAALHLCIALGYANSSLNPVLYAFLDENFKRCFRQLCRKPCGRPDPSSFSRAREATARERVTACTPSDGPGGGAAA

In the first test the target is κ-opioid receptor (KOR) (Homo sapiens, UniProt P41145). Type of test: binding.
κ-opioid receptor (KOR), sequence (P41145 whole entry): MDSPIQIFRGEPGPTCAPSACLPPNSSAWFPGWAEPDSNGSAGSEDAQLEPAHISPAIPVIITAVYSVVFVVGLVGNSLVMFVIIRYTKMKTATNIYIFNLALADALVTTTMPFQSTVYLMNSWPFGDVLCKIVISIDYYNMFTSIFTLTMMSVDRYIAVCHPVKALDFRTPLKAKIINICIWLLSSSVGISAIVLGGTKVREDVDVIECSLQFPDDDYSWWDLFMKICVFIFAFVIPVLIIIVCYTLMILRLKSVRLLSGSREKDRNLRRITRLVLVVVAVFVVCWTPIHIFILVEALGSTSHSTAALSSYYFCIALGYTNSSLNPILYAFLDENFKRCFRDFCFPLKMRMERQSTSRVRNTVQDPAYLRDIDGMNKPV
Take `COC(=O)CC(=O)O[C@H]1C[C@@H](C(=O)OC)[C@]2(C)CC[C@H]3C(=O)O[C@H](c4ccoc4)C[C@]3(C)[C@H]2C1=O` [Compound 4]: the “Selectivity MOR/KOR” value was over 5000.
For `CCOC(=O)CC(=O)O[C@H]1C[C@@H](C(=O)OC)[C@]2(C)CC[C@H]3C(=O)O[C@H](c4ccoc4)C[C@]3(C)[C@H]2C1=O` [Compound 5], the “Fold reduction of KOR affinity compared to 1” value (from here on “Fold reduction of KOR affinity”) is reported as 3 fold, the “Selectivity DOR/KOR” value is on record as over 476 and the “Selectivity MOR/KOR” value is listed as over 476.
On to `COC(=O)[C@@H]1C[C@H](OC(=O)CC(=O)OC(C)(C)C)C(=O)[C@H]2[C@@]1(C)CC[C@H]1C(=O)O[C@H](c3ccoc3)C[C@]21C` [Compound 6], for which the “Fold reduction of KOR affinity” value is 24 fold, the “Selectivity DOR/KOR” value is reported as over 67 and the “Selectivity MOR/KOR” value is over 67.
Regarding `COC(=O)CCC(=O)O[C@H]1C[C@@H](C(=O)OC)[C@]2(C)CC[C@H]3C(=O)O[C@H](c4ccoc4)C[C@]3(C)[C@H]2C1=O` [Compound 7], the “Fold reduction of KOR affinity” value came to 6 fold, the “Selectivity DOR/KOR” value was over 277 and the “Selectivity MOR/KOR” value was over 277.
With `CCOC(=O)CCC(=O)O[C@H]1C[C@@H](C(=O)OC)[C@]2(C)CC[C@H]3C(=O)O[C@H](c4ccoc4)C[C@]3(C)[C@H]2C1=O` [Compound 8], the “Fold reduction of KOR affinity” value was 70 fold, the “Selectivity DOR/KOR” value is over 23 and the “Selectivity MOR/KOR” value is over 23.
Regarding `COC(=O)CCCC(=O)O[C@H]1C[C@@H](C(=O)OC)[C@]2(C)CC[C@H]3C(=O)O[C@H](c4ccoc4)C[C@]3(C)[C@H]2C1=O` [Compound 9], the “Fold reduction of KOR affinity” value was 49 fold and the “Selectivity DOR/KOR” value is given as over 33.
Regarding `COC(=O)CCCCC(=O)O[C@H]1C[C@@H](C(=O)OC)[C@]2(C)CC[C@H]3C(=O)O[C@H](c4ccoc4)C[C@]3(C)[C@H]2C1=O` [Compound 10], the “Selectivity DOR/KOR” value is given as over 17 and the “Selectivity MOR/KOR” value was over 17.
In the case of `COC(=O)[C@@H]1C[C@H](OC(=O)CCCC(=O)O)C(=O)[C@H]2[C@@]1(C)CC[C@H]1C(=O)O[C@H](c3ccoc3)C[C@]21C` [Compound 12], the “Selectivity DOR/KOR” value is listed as over 38.
As for `COC(=O)[C@@H]1C[C@H](OC(=O)/C=C\C(=O)O)C(=O)[C@H]2[C@@]1(C)CC[C@H]1C(=O)O[C@H](c3ccoc3)C[C@]21C` [Compound 13], the “Affinities Ki± SD KOR” value was “no affinity”.
`COC(=O)/C=C/C(=O)O[C@H]1C[C@@H](C(=O)OC)[C@]2(C)CC[C@H]3C(=O)O[C@H](c4ccoc4)C[C@]3(C)[C@H]2C1=O` [Compound 14]: the “Fold reduction of KOR affinity” value is 6 fold and the “Selectivity DOR/KOR” value is reported as over 256.
As for `CCOC(=O)/C=C/C(=O)O[C@H]1C[C@@H](C(=O)OC)[C@]2(C)CC[C@H]3C(=O)O[C@H](c4ccoc4)C[C@]3(C)[C@H]2C1=O` [Compound 15], the “Selectivity DOR/KOR” value was over 23.
Take `COC(=O)[C@@H]1C[C@H](OC(=O)c2ccccc2C(=O)O)C(=O)[C@H]2[C@@]1(C)CC[C@H]1C(=O)O[C@H](c3ccoc3)C[C@]21C` [Compound 16]: the “Selectivity DOR/KOR” value is reported as over 4 and the “Selectivity MOR/KOR” value is over 4.

A further test addresses δ-opioid receptor (DOR) (Homo sapiens, UniProt P41143). Type of test: binding.
Consider `COC(=O)[C@@H]1C[C@H](OC(=O)/C=C\C(=O)O)C(=O)[C@H]2[C@@]1(C)CC[C@H]1C(=O)O[C@H](c3ccoc3)C[C@]21C` [Compound 13], for which the “Affinities Ki± SD DOR” value is given as “no affinity”.

The target of another test is μ-opioid receptor (MOR) (Homo sapiens, UniProt P35372). Type of test: binding.
μ-opioid receptor (MOR), sequence (P35372 whole entry, species assumed): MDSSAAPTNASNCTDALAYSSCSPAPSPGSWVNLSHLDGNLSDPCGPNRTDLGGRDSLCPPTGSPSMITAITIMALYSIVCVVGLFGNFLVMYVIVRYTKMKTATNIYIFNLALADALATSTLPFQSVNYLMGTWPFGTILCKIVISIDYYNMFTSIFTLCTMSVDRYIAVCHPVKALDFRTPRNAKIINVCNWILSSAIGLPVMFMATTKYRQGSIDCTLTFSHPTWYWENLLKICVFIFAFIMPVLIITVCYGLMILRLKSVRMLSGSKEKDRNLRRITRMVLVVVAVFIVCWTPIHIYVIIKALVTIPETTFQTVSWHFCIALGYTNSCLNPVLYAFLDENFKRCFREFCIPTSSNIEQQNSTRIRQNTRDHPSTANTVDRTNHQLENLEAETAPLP
As for `COC(=O)[C@@H]1C[C@H](OC(=O)/C=C\C(=O)O)C(=O)[C@H]2[C@@]1(C)CC[C@H]1C(=O)O[C@H](c3ccoc3)C[C@]21C` [Compound 13], the “Affinities Ki± SD MOR” value is on record as “no affinity”.
